In patent publication US10813920B2, “Drug for treating corneal endothelium by promoting cell proliferation or inhibiting cell damage” (THE DOSHISHA, priority 2013, dated 2020):

Tested on: human corneal endothelial cells
Assay: Ki67 immunostaining of cultured human corneal endothelial cells
Format: cell-based
Settings: 10 μM; after 3 days; vs control
Method: *Human corneal endothelial cells (HCEC, where the cells were obtained and culturing method thereof): HCEC was cultured as follows. In short, Descemet's membrane including corneal endothelial cells was peeled off from a corneal for research purchased from the Seattle Eye Bank, and the corneal endothelial cells were mechanically peeled off with a basal membrane. After collagenase (ROCHE catalog No: 10 103 586 001) was used to detach and collect the corneal endothelial cell from the basal membrane (typically 1 mg/mL collagenase A (Roche Applied Science) was used for treatment at 37° C. for 2 hours), the cells were subjected to primary culture. The medium used was Opti-MEM I Reduced-Serum Medium, Liquid (INVITROGEN catalog No.: 31985-070) to which 8% fetal bovine serum (FBS) (BIOWEST, catalog No.: S1820-500), […] of CaCl2.2H2O (SIGMA catalog No.: C7902-500G), 0.08% of chondroitin sulfate (SIGMA catalog No.: C9819-5G), 20 μg/ml of ascorbic acid (SIGMA catalog No.: A4544-25G), 50 μg/ml of gentamicin (INVITROGEN catalog No.: 15710-064) and 5 ng/ml of EGF (INVITROGEN catalog No.: PHG0311) were added and acclimated for a 3T3 feeder cell. […] Immunostaining was applied to the cells for observation with a fluorescence microscope. […]

## C[S+]([O-])c1ccc(-c2nc(-c3ccncc3)c(-c3ccc(F)cc3)[nH]2)cc1 (stereo not shown) [SB203580, 4-(4-fluorophenyl)-2-(4-methylsulfinylphenyl)-5-(4-pyridyl)-1H-imidazole]
  Expression of Ki67 (Ki67 positive cells): significantly more cells
